In assay [1] the test system is LN229 cells. Put plainly: Clonogenic survival assay. The conditions noted are these: treated 24 h in serum-free medium. In kind it is cell-based, human. The method, then:
(§1) Cells were seeded the day before treatment. The inventors treated the cells in the indicated concentrations in serum-free medium for 24 h after which they changed the medium back to medium containing FCS, followed by a 7 to 21 day incubation time. The inventors used crystal violet (0.5% w/v) to stain colonies and analyzed the area coverage using the ImageJ software Plugln ColonyArea. Measurements were normalized to respective vehicle control wells.

The subject of assay [2] is LNZ308 cells. The assay is described as follows: Clonogenic survival assay. The conditions noted are these: treated 24 h in serum-free medium. In kind it is cell-based, human. As for the experimental part: as §1
For assay [3], the system named is human and murine cell lines. Put plainly: Anti-glioma activity in vitro (Figure 1 b). The assay is classed as cell-based. As for the experimental part: as §1, with “The inventors seeded 5,000 or 10,000 cells, respectively, on day one, treated the next day in serum-free medium and incubated for up to 72 h. Subsequently, they measured cell viability using CellTiterBlue reagent (Promega, Madison, WI, US) according to manufacturer's instructions with a GloMax (Promega, Madison, Wl, US). The inventors normalized measurements to untreated cells. Cells” for “Cells”

For another assay, the system named is GL261 cells. The assay is described as follows: Cell cycle analysis (propidium iodide flow cytometry). The assay is classed as cell-based, murine. The conditions noted are these: 72 h. The method, then:
The inventors seeded the cells on day one and treated them on the next day. After 72 h, they detached the cells and stained them with propidium iodide solution (50 µg/mL propidium iodide (Thermo Fisher Scientific, Waltham, MA, US), 0.2% Triton X-100 (Roth, Karlsruhe, Germany), 100 µg RNase (Thermo Fisher Scientific, Waltham, MA, US), 1 g/L glucose in PBS (phosphate buffered saline) (Gibco, Carlsbad, CA, US). Flow cytometry was done using a MACSQuant Analyzer 10 (Miltenyi Biotec, Bergisch Gladbach, Germany). The inventors analyzed the acquired data with the FlowJo software (Beckton, Dickinson & Company, Franklin Lakes, NJ, US).
A general note: A flow cytometer gives signals particle by particle.

The subject of assay [4] is LN229 cells. Put plainly: DigiWest Multiplex Protein Analysis. To be noted: LN229, 72 h. The assay is classed as cell-based, human. As for the experimental part: (§2) After 72 h of AZD6738 treatment, the inventors detached and counted the cells and subsequently snap froze them in liquid nitrogen. For protein preparation, they kept the cells on ice and added 20-30 µL of lysis buffer (LDS Lysis Buffer (Life Technologies, Carlsbad, CA, USA), supplemented with reducing agent (Thermo Fisher Scientific, Waltham, MA, USA) and protease- (Roche Diagnostics GmbH, Mannheim, Germany) and phosphatase-inhibitor (Roche)). Proteins were denatured by heating to 95°C for 10 min before the lysates were transferred to QiaShredder Eppendorf tubes (Eppendorf, Hamburg, Germany). After centrifugation (16,000g, 5 min, RT), eluates were stored at -80°C until further use. Protein quantification was performed using in-gel staining. 1 µL of each original lysate was diluted 1:10 (v/v) in lysis buffer. The respective aliquots were denatured for 10 mins at 70°C and 10 µL were run in a NuPAGE 4-12% Bis-Tris precast gel (Thermo Fisher Scientific) according to the manufacturer's instructions. The gel was washed with water and proteins were stained with BlueBandit (VWR, Darmstadt, Germany) for 1 h. The gel was de-stained over night with ddH2O before detection on a LI-COR (LI-COR, Bad Homburg, Germany) instrument. Analysis and protein quantification was performed using ImageStudio.
(§3) The DigiWest analysis was performed as described in the art. In brief, the inventors loaded 10 µg of cellular protein on an SDS-polyacrylamide gel and size-separated them using the commercial NuPAGE system (Life Technologies). Size-separated proteins were blotted onto a PVDF membrane and biotinylated on the membrane using NHS-PEG12-Biotin (50 µM) in PBST for 1 h. After drying of the membrane, the samples lanes were cut into 96 strips of 0.5 mm width using an automated cutting plotter (Silhouette America, West Orem, UT, USA) each corresponding to a defined molecular weight fraction. Each of the strips was placed in one well of a 96-well plate and 10 µl elution buffer (8 M urea, 1% Triton-X100 in 100 mM Tris-HCl pH 9.5) was added. The eluted proteins were diluted with 90 µl of dilution buffer (5% BSA in PBS, 0.02% sodium azide, 0.05% Tween-20) and each of the protein fractions was incubated with 1 distinct magnetic color-coded bead population (Luminex, Austin, USA) coated with neutravidin. The biotinylated proteins bind to the neutravidin beads such that each bead color represents proteins of one specific molecular weight fraction. All 96 protein loaded bead populations were mixed resulting in reconstitution of the original lane. Such a beadmix was sufficient for about 150 individual antibody incubations. Aliquots of the DigiWest bead-mixes (about 1/200th per well) were added to 96 well plates containing 50 µl assay buffer (Blocking Reagent for ELISA (Roche, Rotkreuz, Switzerland) supplemented with 0.2% milk powder, 0.05% Tween-20 and 0.02% sodium azide) and different diluted antibodies were added to the wells. After overnight incubation at 15°C in a shaker, the bead-mixes were washed twice with PBST and species-specific PE-labelled (Phycoerythrin) secondary antibodies (Dianova, Hamburg, Germany) were added and incubated for 1 hour at 23°C. Beads were washed twice prior to readout on a Luminex FlexMAP 3D.
(§4) For quantification of the antibody specific signals, we used the DigiWest Analyzer software; it automatically identifies peaks of appropriate molecular weight and calculates the peak area. Signal intensity was normalized to the total amount of protein loaded onto one lane. The software package MEV 4.9.0 was used for statistical analysis along with Graph Pad Prism (Version 9.0.0). For all statistical tests, a p-value <0.05 was considered significant.

The subject of assay [5] is LNZ308 cells. The assay is described as follows: DigiWest Multiplex Protein Analysis. The assay is classed as cell-based, human. To be noted: LNZ308, 72 h. The method, then:
as §2, §3, §4

In the next assay the test system is LN229-GFP cells. The assay is described as follows: Zebrafish embryo xenotransplant, tumor area. In kind it is in vivo, wildtype zebrafish embryos. To be noted: monotherapy, 48 h of treatment; not significant as compared to the DMSO control. As for the experimental part:
The inventors used zebrafish wildtype (wt) TE embryos younger than 5 days post-fertilization (dpf). […] Labelled cells were suspended in PBS at 2*10^5 cells/µL and approx. 1 nL cell suspension was injected into the midbrain region of 24 hpf embryos. The inventors incubated the embryos at 28°C for 1 h and afterwards divided them into treatment groups. Only successfully transplanted embryos were used for further experiments. Then, the inventors applied the treatments as indicated in the respective figures and incubated that for 48 h at 35°C. For evaluation of tumor size, they imaged embryos on a Nikon Stereomicroscope (SMZ18) with the NIS Element software. The inventors assessed the tumor surface areas using Imaris (version 9.2.0).

Consider `C[C@@H]1COCCN1c1cc(C2([S@](C)(=N)=O)CC2)nc(-c2cc[nH]c3nccc2-3)n1` [AZD6738, ceralasertib], for which the clonogenic survival entry in the assay on LN229 cells [1] was “dose-dependent reduction”. Moreover, the clonogenic survival entry in the assay with LNZ308 cells [2] was “dose-dependent reduction”. For the same compound, the “anti-glioma activity in vitro” value in assay [3] is on record as “significant anti-glioma activity”. Further, the cell cycle alterations result with GL261 cells is “accumulation in S phase”. In addition, in the assay on LN229 cells [4], the “CDC25C and pHistH3 (Ser10)” value is listed as “downregulated”; the “Survivin (BIRC5)” value is reported as “upregulated”; the “p53, p21 and Bax” value is “upregulation”; the pAkt result was “downregulation”. Moreover, in the assay on LNZ308 cells [5], the p16 entry is “accumulation” and the “pCDK2 (Thr160) protein levels” value is reported as “reduced”. Further, the tumor area result with LN229-GFP cells is on record as “modest decrease”.

Source of the values: patent EP4473972A1, “COMBINATIONS COMPRISING AN ATR INHIBITOR WITH SYNERGISTIC EFFECT AGAINST GLIOMAS” (Eberhard-Karls-Universität Tübingen, priority 2023, dated 2024).
